experiment: gradient 5% acetonitrile 3 min, to 50% in 2 min, to 85% in 15 min, held 3 min, 100 µL/min; conditions: column: Zorbax Extend-C18 2.1 x 50 mm; eluents: water / acetonitrile, 0.1% formic acid
Summary of the method: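 Using water and acetonitrile that each contained 0.1% formic acid, mixtures of ~100 pure standards were separated at 100 μL/min on a Zorbax Extend-C18 column (2.1 × 50 mm, 1.8 μm). The HPLC fed a quadrupole time-of-flight mass spectrometer working in positive and negative ionization mode, with dead and dwell volumes of 40 μL and 900 μL. Data were acquired over 3 months. Retention time was read from computationally picked adduct peaks after manual inspection of each.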

Row | Structure (SMILES) | RP-LC retention time [s]
1 | Cc1cccc(OCc2ccc(-c3nc(C#N)c(NCCCN(C)C)o3)o2)c1 | 728
2 | CC(C)(C)c1noc(-c2ccc(=O)n(Cc3cccc(Cl)c3)n2)n1 | 1150
3 | COc1cc2c(cc1OC)C(C(=O)N(C)c1ccc(Cl)cc1)C(c1cccnc1)N(C)C2=O (centres undefined) | 674
4 | O=C(Cc1c[nH]c2ncccc12)NCc1cccc(Br)c1 | 647
5 | CC(=O)N1CCc2c([nH]c3ccccc23)C12C(=O)N(C)c1ccc(Br)cc12 (centres undefined) | 857
6 | COc1c(C(=O)NC(C)C)sc2cccc(F)c12 | 968
7 | CCC(C)NC(=O)c1sc(-c2cn(C(C)C)c3ncccc23)nc1C (centres undefined) | 931
8 | O=c1c2ccccc2n(Cc2nc(-c3ccccc3)no2)c(=O)n1Cc1ccco1 | 1050
9 | COc1ccc(C2c3cc4c(c(OC)c3CC3OCC(=O)C32)OCO4)cc1OC (centres undefined) | 609
10 | Cc1ccc2c(c1)OCC(=O)N2Cc1nc(-c2ccc(F)cc2)no1 | 970
11 | Cc1sc(-c2cc(C(F)(F)F)on2)cc1S(=O)(=O)NCc1ccc(N(C)C)cc1 | 982
12 | CCOC(=O)c1cnc2c(C(F)(F)F)cccc2c1NCCN(C)C | 614
13 | O=C(c1cccs1)N1N=C(c2ccc3c(c2)OCO3)CC1c1ccco1 (centres undefined) | 919
14 | O=C(Nc1nc(-c2ccc3ccccc3c2)cs1)c1ccc2c(c1)OCO2 | 1160
15 | O=C(NCc1cccnc1)c1ccc(-c2cccs2)nc1 | 586
16 | CCOC(=O)c1ccc(NC(=O)CCc2c(-c3ccc(Cl)cc3)nc3ccccn23)cc1 | 752
17 | O=C(Nc1cnc(-c2ccc(F)cc2)nc1)c1ccc(F)cc1 | 1000
18 | Brc1ccc(OCc2nc3c4ccccc4ncn3n2)cc1 | 981
19 | Cc1cccc(-n2ccc(=O)c(-c3nc(-c4ccc5c(c4)OCO5)no3)n2)c1 | 894
20 | CC(=O)N1CCCSc2ccc(S(=O)(=O)N(C)c3ccc(C)c(C)c3)cc21 | 1030
21 | CC(=O)Nc1ccc(C2(C(=O)NCc3ccc(C)cc3)CCC2)cc1 | 790
22 | CCN1C(=O)c2cccc3c(NC(=O)CSc4ccc(Cl)cc4)ccc1c23 | 861
23 | Cc1nn(C)cc1S(=O)(=O)NCCc1c[nH]c2ccccc12 | 683
24 | COc1ccc2c(c1)C1(CCN(C(=O)NC(C)C)C1)C(=O)N2C (centres undefined) | 681
25 | O=C(CSc1nc2ccc([N+](=O)[O-])cc2s1)c1ccc(F)cc1 | 1030

Row | Structure (SMILES) | RP-LC retention time [s]
26 | Cc1ccc(C)c(NC(=O)Cn2nc3c4sc(N(C)C)nc4ncn3c2=O)c1 | 694
27 | CCOc1cc2ncc(C#N)c(Nc3ccc(F)c(Cl)c3)c2cc1NC(=O)/C=C/CN(C)C | 727
28 | Cc1ccc2[nH]cc(CCN3CC(C(=O)Nc4ccc5c(c4)OCO5)CC3=O)c2c1 (centres undefined) | 783
29 | O=C(NCc1ccccn1)C1CC(=O)N(CCc2c[nH]c3ccc(Cl)cc23)C1 (centres undefined) | 627
30 | COc1cccc(CNC(=O)Cn2c(C)nc3onc(C)c3c2=O)c1 | 727
31 | O=C(Nc1ccc(Cl)cc1F)C1Oc2ccccc2NC1=O (centres undefined) | 824
32 | Cc1cccc(NC(=O)Nc2nccn(-c3cccc(Cl)c3C)c2=O)c1 | 1110
33 | Cn1cc(C(=O)Nc2ccc3c(c2)OCO3)c2cccnc21 | 730
34 | O=C(Cc1c[nH]c2ccccc12)NCCc1c[nH]c2ccc(F)cc12 | 804
35 | CCOC(=O)c1c(NCCc2c[nH]c3ccccc23)c2ccc(Cl)cc2[nH]c1=O | 833
36 | COC(=O)c1cc(C)nc2c1c(=O)n(Cc1cc(C)ccc1C)c(=O)n2Cc1ccco1 | 1170
37 | CCc1ccc(CNc2nc3ccncc3n(CC)c2=O)cc1 | 701
38 | O=S(=O)(c1cccc(-c2nc(-c3ccccc3)no2)c1)N1CCC2(CC1)OCCO2 | 784
39 | Cc1ccc(C)c(-c2csc(Nc3ccc(S(=O)(=O)Nc4cc(C)on4)cc3)n2)c1 | 1070
40 | O=C(Nc1cccc2ccccc12)c1ccc(F)cc1 | 812
41 | c1ccc(-n2nnc(-c3noc(-c4ccco4)n3)c2-c2ccncc2)cc1 | 787
42 | CC1Oc2ccc(-c3csc(NC(=O)c4ccco4)n3)cc2NC1=O (centres undefined) | 783
43 | Cc1c(C(=O)NCc2ccc(OC(C)C)cc2)cc(-c2ccccc2)n1C | 1080
44 | O=C(Nc1nc2c(s1)CN(C(=O)C1CC=CCC1)CC2)c1cccs1 (centres undefined) | 770
45 | CC(=O)Nc1nc(-c2ccc(C)cc2C)cs1 | 808
46 | CCCCNc1nc(-c2ccc(Cl)cc2)nc2ccccc12 | 873
47 | Cc1cc(C)cc(NC(=O)Nc2nccn(-c3cc(C)cc(C)c3)c2=O)c1 | 1220
48 | Cc1noc(C)c1CCNC(=O)c1cn2ccccc2n1 | 593
49 | CC(C)S(=O)(=O)N1CC(Oc2ccccc2-c2nc(C3CC3)no2)C1 | 984

The remaining lines, values ahead:

Row | RP-LC retention time [s] | Structure (SMILES)
50 | 972 | CCS(=O)(=O)Nc1ccc(C2(C(=O)NCc3cc(F)cc(F)c3)CCCCC2)cc1
51 | 842 | O=C(CN1C(=O)C(C(=O)N2CCCC2)Sc2ccccc21)N1CCN(c2ccccc2)CC1 (centres undefined)
52 | 970 | COc1ccc(-c2nnc(-c3cc(S(=O)(=O)N(C)C)ccc3Cl)o2)cc1
53 | 564 | O=C(c1ccc2c(=O)n3c(nc2c1)CCCC3)N1CCN(c2ccccn2)CC1
54 | 690 | CCOc1ccc(NC(=O)Cn2nc3n(c2=O)CCCCC3)cc1
55 | 946 | CCCCOc1ccc(NC(=O)c2oc3cc(C)ccc3c2C)c2cccnc12
56 | 878 | O=C(c1ccc(Br)o1)N1CCN(c2ccc(=O)n(-c3cccc(Cl)c3)n2)CC1
57 | 1040 | COc1nc2ccccc2nc1N1CCCC(C(=O)NCc2ccccc2)C1 (centres undefined)
58 | 748 | Cc1ccc(-c2ncn(C3CCCCC3)c2-c2ccc(C(=O)N3CCN(c4ncccn4)CC3)o2)cc1
59 | 702 | CN1C(=O)COc2cc(-c3noc(C(=O)NCC4CCCO4)n3)ccc21 (centres undefined)
60 | 1140 | CCn1c(SCC(=O)Nc2nc(-c3ccc(C)cc3)cs2)nnc1-c1cc2ccccc2o1
61 | 758 | COc1ccc(OC)c(C(O)CN2CCN(c3cc(C)ccc3C)CC2)c1 (centres undefined)
62 | 682 | COc1cc(NC(=O)N2CCCC(Cn3cnc4cccnc43)C2)cc(OC)c1 (centres undefined)
63 | 983 | Cc1ccc(C)c(NC(=O)CN2C(=O)CCc3cc(S(=O)(=O)N4CCCCC4C)ccc32)c1 (centres undefined)
64 | 916 | CC(C)c1ccc(-c2cc3c4nn(CC(=O)N5CCCC5)c(=O)n4ccn3n2)cc1
65 | 851 | CCOC(=O)c1c(S(=O)(=O)N2CCC(C(=O)Nc3ccccc3F)CC2)c(C)n(C)c1C
66 | 948 | COc1ccc(-c2noc(C3CCCN3C(=O)NC3CCCCC3)n2)cc1 (centres undefined)
67 | 673 | O=C(c1ccc(S(=O)(=O)c2ccc(Br)cc2)nc1)N1CCN(c2ccccn2)CC1
68 | 1050 | O=S(=O)(c1cc(-c2nnc(C3CCC3)o2)co1)N1CCN(c2ccccc2)CC1
69 | 1020 | CCc1nc2sc(C(C)C)nn2c1S(=O)(=O)N1CCCCC1

Row | RP-LC retention time [s] | Structure (SMILES)
70 | 718 | CCOc1ccc(-c2nc(CN3CCN(C(=O)NC4CCCCC4)CC3)c(C)o2)cc1
71 | 860 | CCc1nc(-c2csc(S(=O)(=O)N3CCC(C(=O)NCc4cccs4)CC3)c2)no1
72 | 890 | CCn1ccc(C(=O)N2CCCC2c2cccc(C)c2)n1 (centres undefined)
73 | 854 | Cc1ccc(CNC(=O)N2CCN(Cc3nc4cc(-c5ccccc5)ccc4o3)CC2)cc1
74 | 730 | CCCn1c(C)cnc1CC1CCN(S(=O)(=O)c2ccc3c(c2)CCC3)C1 (centres undefined)
75 | 556 | O=C(C(=O)N1CCN(c2ccccn2)CC1)c1ccc[nH]1
76 | 770 | Cc1ccc(-c2nc(N3CCOCC3)ncc2C(=O)O)cc1
77 | 612 | Cc1nc(Nc2ccc(Cl)cn2)sc1C(=O)N1CCN(C(C)C)CC1
78 | 720 | COCCc1nncn1C1CCN(S(=O)(=O)c2ccccc2C(F)(F)F)CC1
79 | 804 | O=C(NC1CCCCC1)c1nc(-c2ccnc(N3CCCCC3)c2)no1
80 | 668 | CCOC(=O)c1cccc(Nc2c(-c3ccc(OC)cc3)nc3cnccn23)c1
81 | 604 | O=C(c1ccc(-c2ccsc2)nc1)N1CCN(c2ccccn2)CC1
82 | 1140 | CCOc1ccc(-c2cc3c(=O)n(Cc4nc(-c5cccc(F)c5)no4)ccn3n2)cc1
83 | 896 | Cc1[nH]c(-c2ccccc2)cc1C(=O)N1CCCCCC1
84 | 960 | COc1cccc(CNC(=O)c2nnc(-c3ccc(S(=O)(=O)N4CCCCC4)cc3)o2)c1
85 | 715 | Cc1noc(C2CN(C(=O)Nc3cccc(C)c3C)CC23CCOCC3)n1 (centres undefined)
86 | 630 | Cc1ccc(Cl)cc1NC(=O)Cn1ncc2c(N3CCN(c4ccccn4)CC3)ncnc21
87 | 601 | COc1ccc(C)cc1Nc1c(C(=O)N2CCCC2)cnc2nc(C)ccc12
88 | 954 | O=C(NC1CCCC1)C(c1ccc(Cl)cc1)N1CCN(C(=O)c2ccco2)CC1 (centres undefined)
89 | 730 | CC(C)C(=O)NCc1csc(C2CCCN(C(=O)c3cc(F)ccc3F)C2)n1 (centres undefined)

— the METLIN SMRT retention time set (Domingo-Almenara et al. 2019)
